Test results from patent US10710996B2, “Pyrido-azaheterecydic compound and preparation method and use thereof” (SHANGHAI INSTITUTE OF MATERIA MEDICA, CHINESE ACADEMY OF …, priority 2015, dated 2020).

biological target: T1, c-Met kinase (Homo sapiens, UniProt P08581); test: Inhibitory effect on c-Met kinase activity at molecular level (ELISA); type: biochemical; settings: not given;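 note: recombinant c-Met kinase domain with 5 µM ATP, 1 h at 37 °C, substrate phosphorylation detected by anti-phosphotyrosine PY99 ELISA at 490 nm versus DMSO negative control, ATP-free wells as blank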
T1 construct: c-Met kinase domain recombinant protein diluted with 49 μL of the reaction buffer was added
T1 sequence (P08581 1078-1345 limits assumed): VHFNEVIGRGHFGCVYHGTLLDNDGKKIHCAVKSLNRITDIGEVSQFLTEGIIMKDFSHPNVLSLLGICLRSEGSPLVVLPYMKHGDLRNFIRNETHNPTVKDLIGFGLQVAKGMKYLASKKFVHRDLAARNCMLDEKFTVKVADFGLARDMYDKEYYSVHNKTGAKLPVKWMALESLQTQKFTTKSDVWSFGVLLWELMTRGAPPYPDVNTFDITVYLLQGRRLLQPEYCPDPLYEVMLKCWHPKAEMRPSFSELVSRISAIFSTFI

SMILES | IC50
O=C(Nc1ccc(F)cc1)C1(C(=O)Nc2ccc(Oc3ccnc4cc(OCCc5ccncc5)ncc34)c(F)c2)CC1 [Compound 25S, N-(3-fluoro-4-((7-(2-(pyridin-4-yl)ethoxy)-1,6-naphthyridin-4-yl)oxy)phenyl)-N-(4-fluorophenyl)cyclopropyl-1,1-dicarboxamide] | 1 to 10 nM
C[C@H]1COCCN1CCOc1cc2nccc(Oc3ccc(NC(=O)C4(C(=O)Nc5ccc(F)cc5)CC4)cc3F)c2cn1 [Compound 29S, (S)-N-(3-fluoro-4-((7-(2-(3-methylmorpholino)ethoxy)-naphthyridin-4-yl)oxy)phenyl)-N-(4-fluorophenyl) cyclopropyl-1,1-dicarboxamide] | 10 to 100 nM
O=C(Nc1ccc(F)cc1)C1(C(=O)Nc2ccc(Oc3ccnc4cc(OCCn5ccnc5)ncc34)c(F)c2)CC1 [Compound 31S, N-(4-((7-(2-(1H-imidazol-1-yl)ethoxy)-naphthyridin-4-yl)oxy)-3-fluorophenyl)-N-(4-fluorophenyl)cyclopropyl-1,1-dicarboxamide] | 10 to 100 nM
O=C(Nc1ccc(F)cc1)C1(C(=O)Nc2ccc(Oc3ccnc4cc(N5CCN(Cc6ccccc6)CC5)ncc34)c(F)c2)CC1 [Compound 32S, N-(4-((7-(4-benzylpiperazin-1-yl)-naphthyridin-4-yl)oxy)-3-fluorophenyl)-N-(4-fluorophenyl)cyclopropyl-1,1-dicarboxamide] | 10 to 100 nM
O=C(Nc1ccc(F)cc1)C1(C(=O)Nc2ccc(Oc3ccnc4cc(-c5ccc([N+](=O)[O-])cc5)ncc34)c(F)c2)CC1 [Compound 48S, N-(3-fluoro-4-((7-(4-nitrophenyl)-1,6-naphthyridin-4-yl)oxy)phenyl)-N-(4-fluorophenyl)cyclopropyl-1,1-dicarboxamide] | 10 to 100 nM
O=C(COc1cc2nccc(Oc3ccc(NC(=O)C4(C(=O)Nc5ccc(F)cc5)CC4)cc3F)c2cn1)N1CCOCC1 [Compound 36S, N-(3-fluoro-4-((7-(2-morpholino-2-acetoxy)-1,6-naphthyridin-4-yl)oxy)phenyl)-N-(4-fluorophenyl)cyclopropyl-1,1-dicarboxamide] | 10 to 100 nM
CCN1CCC(Nc2cc3nccc(Oc4ccc(NC(=O)c5ccnn(-c6ccc(F)cc6)c5=O)cc4F)c3cn2)C(F)C1 (centres unmarked) [Compound 35S, N-(4-((7-((1-ethyl-3-fluoropiperidin-4-yl)amino)-1,6-naphthyridin-4-yl)oxy)-3-fluorophenyl)-2-(4-fluorophenyl)-3-oxo-2,3-dihydropyridazine-4-carboxamide] | 10 to 100 nM
CN(C(=O)C1(C(=O)Nc2ccc(Oc3ccnc4cc(OCCN5CCOCC5)ncc34)c(F)c2)CC1)c1ccc(F)cc1 [Compound 14S, N-(3-fluoro-4-((7-(2-morpholinoethoxy)-1,6-naphthyridin-4-yl)oxy)phenyl)-N-(4-fluorophenyl)-N-methylcyclopropyl-1,1-dicarboxamide] | 100 to 1000 nM
Cn1cc(-c2cc3nccc(Oc4ccc(NC(=O)c5cccn(-c6ccc(F)cc6)c5=O)cc4F)c3cn2)cn1 [Compound 53S, N-(3-fluoro-4-((7-(1-methyl-1H-pyrazol-4-yl)-1,6-naphthyridin-4-yl)oxy)phenyl)-1-(4-fluorophenyl)-2-oxo-1,2-dihydropyridine-3-carboxamide] | 10 to 100 nM
O=C(Nc1ccc(F)cc1)C1(C(=O)Nc2ccc(Oc3ccnc4cc(N5CCC(N6CCOCC6)CC5)ncc34)c(F)c2)CC1 [Compound 28S, N-(3-fluoro-4-((7-(4-morpholinopiperidin-1-yl)--naphthyridin-4-yl)oxy)phenyl)-N-(4-fluorophenyl)cyclopropyl-1,1-dicarboxamide] | 10 to 100 nM
O=C(Nc1ccc(F)cc1)c1cccn(-c2ccc(Oc3ccnc4cc(OCCN5CCOCC5)ncc34)c(F)c2)c1=O [Compound 16S, 1-(3-fluoro-4-((7-(2-morpholinoethoxy)-1,6-naphthyridin-4-yl)oxy)phenyl)-N-(4-fluorophenyl)-2-oxo-1,2-dihydropyridine-3-carboxamide] | 10 to 100 nM
O=C(Nc1ccc(F)cc1)C1(C(=O)Nc2ccc(Oc3ccnc4cc(-c5ccc(N6CCOCC6)cc5)ncc34)c(F)c2)CC1 [Compound 50S, N-(3-fluoro-4-((7-(4-morpholinophenyl)-1,6-naphthyridin-4-yl)oxy)phenyl)-N-(4-fluorophenyl)cyclopropyl-1,1-dicarboxamide] | 10 to 100 nM
O=C(Nc1ccc(F)cc1)C1(C(=O)Nc2ccc(Oc3ccnc4cc(N5CCOCC5)ncc34)c(F)c2)CC1 [Compound 27S, N-(3-fluoro-4-((7-morpholino-1,6-naphthyridin-4-yl)oxy)phenyl)-N-(4-fluorophenyl)cyclopropyl-1,1-dicarboxamide] | 10 to 100 nM
O=C(Nc1ccc(F)cc1)C1(C(=O)Nc2ccc(Oc3ccnc4nc(OCCCN5CCOCC5)cnc34)c(F)c2)CC1 [Compound 61S, N-(3-fluoro-4-((3-(3-morpholinopropoxy)pyrido[2,3-b]pyrazin-8-yl)oxy)phenyl)-N-(4-fluorophenyl)cyclopropyl-1,1-dicarboxamide] | 10 to 100 nM
Nc1ccc(Oc2ccnc3c(Br)c(OCCN4CCOCC4)ncc23)c(F)c1 [Compound 4S, 4-((8-bromo-7-(2-morpholinoethoxy)-1,6-naphthyridin-4-yl)oxy)-3-fluoroaniline] | 1000 to 10000 nM
Nc1ccc(Oc2ccnc3cc(OCCN4CCOCC4)ncc23)c(F)c1 [Compound 5S] | 100 to 1000 nM
O=C(Nc1ccc(Oc2ccnc3c(Br)c(OCCN4CCOCC4)ncc23)c(F)c1)c1c[nH]cc(-c2ccccc2)c1=O [Compound 19S, N-(4-((8-bromo-7-(2-morpholinoethoxy)-1,6-naphthyridin-4-yl)oxy)-3-fluorophenyl)-4-oxo-5-phenyl-1,4-dihydropyridine-3-carboxamide] | 10 to 100 nM
O=C(Nc1ccc(F)cc1)C1(C(=O)Nc2ccc(Oc3ccnc4[nH]c(=O)cnc34)c(F)c2)CC1 [Compound 33S, N-(3-fluoro-4-((3-oxo-3,4-dihydropyrido [2,3-b]pyrazin-8-yl)oxy)phenyl)-N-(4-fluorophenyl)cyclopropyl-1,1-dicarboxamide] | 100 to 1000 nM
O=C(Nc1ccc(F)cc1)C1(C(=O)Nc2ccc(Oc3ccnc4cc(-c5cnoc5)ncc34)c(F)c2)CC1 [Compound 51S] | 1 to 10 nM
O=C(Nc1ccc(Oc2ccnc3c(Br)c(OCCN4CCOCC4)ncc23)c(F)c1)c1c[nH]cc(-c2ccc(F)cc2)c1=O [Compound 21S, N-(4-((8-bromo-7-(2-morpholinoethoxy)-1,6-naphthyridin-4-yl)oxy)-3-fluorophenyl)-5-(4-fluorophenyl)-4-oxo-1,4-dihydropyridine-3-carboxamide] | 10 to 100 nM
CN1CCN(CCOc2ncc3c(Oc4ccc(NC(=O)C5(C(=O)Nc6ccc(F)cc6)CC5)cc4F)ccnc3c2Br)CC1 [Compound 10S, N-(4-((8-bromo-7-(2-(4-methylpiperazin-1-yl)ethoxy)-1,6-naphthyridin-4-yl)oxy)-3-fluorophenyl)-N-(4-fluorophenyl) cyclopropyl-1,1-dicarboxamide] | 10 to 100 nM
O=C(Nc1ccc(F)cc1)C1(C(=O)Nc2ccc(Oc3ccnc4cc(-c5ccsn5)ncc34)c(F)c2)CC1 [Compound 52S] | 100 to 1000 nM
O=C(Nc1ccc(F)cc1)C1(C(=O)Nc2ccc(Oc3ccnc4c(Br)c(OCCN5CCOCC5)ncc34)c(F)c2)CC1 [Compound 6S, N-(4-((8-bromo-7-(2-morpholinoethoxy)-1,6-naphthyridin-4-yl)oxy)-3-fluorophenyl)-N-(4-fluorophenyl) cyclopropyl-1,1-dicarboxamide] | 10 to 100 nM
C[C@@H]1COCCN1CCOc1cc2nccc(Oc3ccc(NC(=O)C4(C(=O)Nc5ccc(F)cc5)CC4)cc3F)c2cn1 [Compound 30S, (R)-N-(3-fluoro-4-((7-(2-(3-methylmorpholino)ethoxy)-naphthyridin-4-yl)oxy)phenyl)-N-(4-fluorophenyl) cyclopropyl-1,1-dicarboxamide] | 10 to 100 nM
O=C(Cc1ccccc1)Nc1ccc(Oc2ccnc3c(Br)c(OCCN4CCOCC4)ncc23)c(F)c1 [Compound 18S, N-(4-((8-bromo-7-(2-morpholinoethoxy)-1,6-naphthyridin-4-yl)oxy)-3-fluorophenyl)-2-phenylacetamide] | 100 to 1000 nM
O=C(Nc1ccc(F)cc1)C1(C(=O)Nc2ccc(Oc3ccnc4ncc(=O)[nH]c34)c(F)c2)CC1 [Compound 34S, N-(3-fluoro-4-((2-oxo-1,2-dihydropyrido [2,3-b]pyrazin-8-yl)oxy)phenyl)-N-(4-fluorophenyl)cyclopropyl-1,1-dicarboxamide] | 100 to 1000 nM
COC(=O)c1cccn(-c2ccc(Oc3ccnc4cc(OCCN5CCOCC5)ncc34)c(F)c2)c1=O [Compound 17S, methyl 1-(3-fluoro-4-((7-(2-morpholinoethoxy)-1,6-naphthyridin-4-yl)oxy)phenyl)-2-oxo-1,2-dihydropyridine-3-carboxylate] | 1 to 10 nM

tested on: EBC-1 cells; test: Inhibition of c-Met-mediated EBC-1 cell proliferation (SRB staining); type: cell-based; settings: Homo sapiens, 72 hours treatment
Description: The inhibitory effect of the compounds on the growth of non-small cell cancer EBC-1 cell (a cell line in which Met is continually activated due to the amplification of MET gene, and is a Met-dependent tumor cell line) was measured by sulforhodamine B (SRB) staining assay. A certain amount of EBC-1 cells in their logarithmic growth phase were seeded in 96-well plates at 90 μL per well and cultured overnight, then 10 μL of different concentrations of compounds or solvent control were added thereto, three wells for each concentration. After treated by the compound for 72 hours, the adherent cells were removed of culture medium and fixed with 10% (w/v) trichloroacetic acid (100 μL/well) at 4° C. for 1 hr followed by rinsing with distilled water five times. After drying at room temperature, 100 μL of SRB solution (dissolved in 1% glacial acetic acid at 4 mg/mL) was added to each well to incubate and stain the cells for 15 min at room temperature, then unbound SRB was washed off with 1% glacial acetic acid for five times. After drying at room temperature, 100 μL of 10 mM Tris solution was added to each well. The optical density (OD value) at 515 nm was read on a VERSMax microplate reader. […] The experiment was repeated twice. The IC50 data was calculated as a range based on the test results of concentrations set in the initial screening test.

SMILES | IC50
O=C(Nc1ccc(F)cc1)C1(C(=O)Nc2ccc(Oc3ccnc4cc(OCCc5ccncc5)ncc34)c(F)c2)CC1 [Compound 25S, N-(3-fluoro-4-((7-(2-(pyridin-4-yl)ethoxy)-1,6-naphthyridin-4-yl)oxy)phenyl)-N-(4-fluorophenyl)cyclopropyl-1,1-dicarboxamide] | 100 to 1000 nM
CN1CCN(CCOc2cnc3nccc(Oc4ccc(NC(=O)C5(C(=O)Nc6ccc(F)cc6)CC5)cc4F)c3n2)CC1 [Compound 66S, N-(3-fluoro-4-((2-(2-(4-methylpiperazin-1-yl)ethoxy)pyrido[2,3-b]pyrazin-8-yl)oxy)phenyl)-N-(4-fluorophenyl) cyclopropyl-1,1-dicarboxamide] | 1000 to 10000 nM
